The text below walks through data of ChEMBL document CHEMBL1146633, “Synthesis and antimalarial evaluation of new 1,4-bis(3-aminopropyl)piperazine derivatives” (Bioorg Med Chem Lett, 2003).

Test [1] concerns MRC5. As to the kind of experiment: Cytotoxicity against human diploid embryonic lung cell line (MRC5 cells) using the colorimetric MTT assay. In kind it is functional. In general terms: Tetrazolium assays rely on reduction of a dye to a coloured formazan, in cell work by metabolically active cells.
Test [2] has as its target T1, Histidine-rich protein PFHRP-II (Plasmodium falciparum) (UniProt P05227).
T1 sequence (whole entry): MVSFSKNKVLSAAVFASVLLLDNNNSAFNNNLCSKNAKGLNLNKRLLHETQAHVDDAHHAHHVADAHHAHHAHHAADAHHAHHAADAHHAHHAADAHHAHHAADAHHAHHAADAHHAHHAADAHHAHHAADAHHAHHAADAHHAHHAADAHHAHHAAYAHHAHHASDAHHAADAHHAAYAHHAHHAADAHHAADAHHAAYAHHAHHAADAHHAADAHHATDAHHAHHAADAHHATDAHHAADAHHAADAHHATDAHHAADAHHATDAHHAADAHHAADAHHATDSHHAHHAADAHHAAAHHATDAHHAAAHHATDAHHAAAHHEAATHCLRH
As to the kind of experiment: Vacuolar accumulation ratio (VAR) on beta-hematin inhibitory activity. It counts as functional.

For test [3], the system named is MRC5. As to the kind of experiment: Relative inhibitory activity to cytotoxicity as selectivity index (CC50/IC50). It counts as functional.
The next test deals with Plasmodium falciparum. The test can be described thus: Antimalarial activity against chloroquine-resistant Plasmodium falciparum FcB1. In kind it is functional, organism-based.
Test [4] concerns the target T1, Histidine-rich protein PFHRP-II (Plasmodium falciparum). The test can be described thus: Inhibition of 1-monooleoyl glycerol (MOG) induced beta-hematin formation at 200 uM. In kind it is functional.

A word on the CC50: it is the concentration at which the toxic effect on the cells reaches its halfway point. The compound `CCN(CC)CCCC(C)Nc1ccnc2cc(Cl)ccc12` (stereo unspecified) [CHLOROQUINE] gave a CC50 in the test on MRC5 [1] of 50 µM. The VAR in test [2] amounted to 5310.

As a reminder, the IC50 is the concentration needed to halve the response being measured. Read a low IC50 as inhibition by little substance. Regarding `CC(C)CN(CCCN1CCN(CCCNCc2ccccc2)CC1)CC(C)C`, the midpoint of cytotoxicity in the test on MRC5 [1], the CC50, lay at 21 µM. Further, in the test with MRC5 [3], the Selectivity index stood at 46. This compound also yielded an IC50 in the test on Plasmodium falciparum of 0.454 µM. For the same compound, the VAR in test [2] is 476000.

In turn, `CC(C)CN(CCCN1CCN(CCCNc2ccnc3ccccc23)CC1)CC(C)C` came in with a CC50 in the test on MRC5 [1] of 30 µM. This compound came in with a Selectivity index with MRC5 [3] of 1587. The compound also had an IC50 in the test on Plasmodium falciparum of 0.0189 µM. The VAR in test [2] stood at 882000.

As a reminder, the inhibition is how much of the control response was suppressed. A high value points to strong suppression. In the case of `CC(C)CN(CCCN1CCN(CCCNc2ccc([N+](=O)[O-])cn2)CC1)CC(C)C`, the inhibition in test [4] is 53%. The compound further yielded a CC50 in the test with MRC5 [1] of 49 µM. This compound registered a Selectivity index with MRC5 [3] of 65. Further, in the test on Plasmodium falciparum, it took 0.758 µM to reach half-maximal inhibition (IC50). For the same compound, in test [2], the VAR is 3800.

`CC(C)CN(CCCN1CCN(CCCNCc2ccncc2)CC1)CC(C)C` had a CC50 in the test on MRC5 [1] of 30 µM. In addition, the Selectivity index with MRC5 [3] was 36. This compound also returned an IC50 in the test on Plasmodium falciparum of 0.842 µM. In test [2], the VAR was found to be 504000.

In the test on MRC5 [1], `CC(C)CN(CCCN1CCN(CCCNCc2ccc(Cl)cc2)CC1)CC(C)C` displayed a CC50 of 13 µM. Further, the IC50 in the test with Plasmodium falciparum worked out at 0.0406 µM. In test [2], the VAR is 475000.

As for `CC(C)CN(CCCN1CCN(CCCNC(=O)c2ccc(Cl)cc2)CC1)CC(C)C`, the inhibition in test [4] amounted to 0%. In the test on MRC5 [1], this compound showed a CC50 of 93 µM. This compound also showed a Selectivity index in the test on MRC5 [3] of 18. In addition, in the test on Plasmodium falciparum, the half-inhibitory concentration (IC50) is 5.27 µM. In test [2], the VAR is 3400.

For the compound `CC(C)CN(CCCN1CCN(CCCNC(=O)c2ccncc2)CC1)CC(C)C`, the inhibition in test [4] stood at 0%. Besides, the CC50 with MRC5 [1] was above 100 µM. Moreover, the Selectivity index with MRC5 [3] was 65. In the test on Plasmodium falciparum, this compound displayed an IC50 of 1.55 µM. Besides, the VAR in test [2] was found to be 3200.

`CC(C)CN(CCCN1CCN(CCCNC(=O)c2ccc3ccccc3c2)CC1)CC(C)C` gave an inhibition in test [4] of 54%. In addition, the CC50 with MRC5 [1] was 44 µM. This compound also yielded a Selectivity index with MRC5 [3] above 65. Further, the IC50 with Plasmodium falciparum came out at 0.672 µM. For the same compound, the VAR in test [2] came to 3300.

In the test on MRC5 [1], `COc1ccc(CNCCCN2CCN(CCCN(CC(C)C)CC(C)C)CC2)cc1` came in with a CC50 of 12 µM. In addition, the IC50 in the test on Plasmodium falciparum was 0.111 µM. Moreover, the VAR in test [2] was found to be 476000.

For the compound `CC(C)CN(CCCN1CCN(CCCNc2nc3ccccc3o2)CC1)CC(C)C`, the CC50 in the test with MRC5 [1] was above 100 µM. This compound also registered a Selectivity index in the test with MRC5 [3] above 75. The compound also gave an IC50 in the test on Plasmodium falciparum of 1.33 µM. For the same compound, the VAR in test [2] turned out to be 298000.

For `CC(C)CN(CCCN1CCN(CCCNc2nc3ccccc3[nH]2)CC1)CC(C)C`, the CC50 with MRC5 [1] was determined as 16 µM. In the test with MRC5 [3], this compound displayed a Selectivity index of 183. 0.0873 µM corresponded to half-maximal inhibition with Plasmodium falciparum (IC50). Also, in test [2], the VAR stood at 388000.

Compound `COc1ccc(C(=O)NCCCN2CCN(CCCN(CC(C)C)CC(C)C)CC2)cc1` came in with a CC50 in the test on MRC5 [1] of 57.7 µM. The same compound had an IC50 in the test with Plasmodium falciparum of 4.43 µM. In addition, the VAR in test [2] stood at 3100.

As to `CC(C)CN(CCCN1CCN(CCCNc2ccnc3cc(Cl)ccc23)CC1)CC(C)C`, the VAR in test [2] stood at 597000.

In test [4], `CC(C)CN(CCCN1CCN(CCCNCc2ccc3ccccc3c2)CC1)CC(C)C` gave an inhibition of 98%. The compound also returned a CC50 in the test with MRC5 [1] of 6.5 µM. In addition, the Selectivity index in the test on MRC5 [3] was 54. This compound showed an IC50 with Plasmodium falciparum of 0.121 µM. Also, the VAR in test [2] turned out to be 475000.

In turn, `CC(C)CN(CCCN1CCN(CCCNc2[nH]cnc3ncnc2-3)CC1)CC(C)C` registered an inhibition in test [4] of 53%. The compound further yielded a CC50 with MRC5 [1] of 82 µM. This compound also showed a Selectivity index in the test on MRC5 [3] of 67. Also, half-maximal inhibition in the test with Plasmodium falciparum (IC50) required 1.23 µM. In addition, the VAR in test [2] was determined as 6200.

`CC(C)CN(CCCN1CCN(CCCNc2cnccn2)CC1)CC(C)C` returned a CC50 with MRC5 [1] of 80 µM. The Selectivity index with MRC5 [3] is recorded as 151. In the test with Plasmodium falciparum, this compound had an IC50 of 0.531 µM. In addition, the VAR in test [2] amounted to 3600.
